# Experimental data as given in PMC3478282, “Probing the Putative Active Site of YjdL: An Unusual Proton-Coupled Oligopeptide Transporter from E. coli” (PLoS ONE, 2012).
# Numbering of substitutions follows the chain as printed. Residues, ends and D or L forms follow the SMILES beside them.
# What was measured:
# Type in all cases: cell-based, E. coli
# YjdL Tyr58Phe = target: T1, YjdL Tyr58Phe (Escherichia coli, UniProt P39276, Y58F); assay: β-Ala-Lys(AMCA) uptake and inhibition assay, YjdL Tyr58Phe; settings: for IC50: 0.5 mM β-Ala-Lys(AMCA), 15 min incubation, pH 6.5, ±SEM, n≥3, read-out: IC50 (inhibition of β-Ala-Lys(AMCA) uptake), Tyr58Phe b
# T1 construct: expressed in transfected cells; host or cells: E. coli BL21(DE3)pLysS, pTTQ18-yjdL mutant (QuikChange)
# T1 sequence (P39276 1-485 Y58F): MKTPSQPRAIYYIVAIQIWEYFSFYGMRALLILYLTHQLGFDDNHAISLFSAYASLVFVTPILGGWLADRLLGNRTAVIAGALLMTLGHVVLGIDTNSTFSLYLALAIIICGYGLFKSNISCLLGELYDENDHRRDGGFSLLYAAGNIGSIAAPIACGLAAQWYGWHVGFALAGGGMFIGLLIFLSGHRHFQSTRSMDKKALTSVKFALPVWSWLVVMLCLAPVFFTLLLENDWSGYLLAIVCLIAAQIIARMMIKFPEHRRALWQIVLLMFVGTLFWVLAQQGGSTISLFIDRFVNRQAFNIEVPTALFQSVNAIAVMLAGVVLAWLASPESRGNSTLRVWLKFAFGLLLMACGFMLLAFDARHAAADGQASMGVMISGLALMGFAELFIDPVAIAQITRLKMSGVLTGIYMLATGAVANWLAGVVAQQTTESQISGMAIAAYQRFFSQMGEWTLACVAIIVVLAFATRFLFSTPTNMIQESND
# Experimental: (§1) Plasmids were transformed into E. coli BL21(DE3)pLysS cells by heat shock and transformants were selected on agar plates containing 100 µg/mL ampicillin and 34 µg/mL chloramphenicol. Single transformants were inoculated into 2 mL LB-media with antibiotics as above and grown overnight. The cultures were diluted 1∶50 in 5 mL LB-media with antibiotics as above, and at an OD600 of 0.5–0.8 protein expression was induced by the addition of 1 mM isopropyl β-D-1-thiogalactopyranoside (IPTG). The cells were harvested after three hours of induction by centrifugation and resuspended in uptake buffer (50 mM MES pH 6.5, 140 mM NaCl, 5.4 mM KCl, 1.8 mM CaCl2, 0.8 mM MgSO4, and 5 mM glucose).
# (§2) Uptake assays were performed as previously described, [20]. In a final assay volume of 100 µL; 0.2 mM β-Ala-Lys-N-7-amino-4-methylcoumarin-3-acetic acid (β-Ala-Lys(AMCA), Biotrend) (10 µL) and various concentrations of ligands (purchased from Bachem or Sigma-Aldrich) or uptake buffer (50 µL) were incubated with bacterial cell suspension (OD600 = 10, 40 µL) at 37°C. After 5 min, the uptake was stopped by addition of 500 µL ice-cold uptake buffer followed by immediate centrifugation and washing twice in ice-cold uptake buffer. Finally the cell pellet was resuspended in 100 µL uptake buffer, and the uptake was quantified by fluorescence measurements (excitation at 340 nm and emission at 460 nm) on a Safire 2 fluorimeter. Non-specific uptake was measured as described above on IPTG-induced E. coli BL21(DE3)pLysS cells harboring the empty pTTQ18 vector. All uptake assay experiments were reproduced at least three times independently and data analyses were performed using GraphPad Prism ver. 5.
# WT-YjdL = target: T2, WT-YjdL (Escherichia coli, UniProt P39276); assay: cell-based; settings: for IC50: IC50 (inhibition of β-Ala-Lys(AMCA) uptake)
# T2 construct: expressed in transfected cells; host or cells: E. coli BL21(DE3)pLysS, pTTQ18-yjdL, IPTG-induced
# T2 sequence (P39276 1-485): T1 sequence (P39276 1-485 Y58F) with F58Y
# Experimental: as §1, with “The cells were harvested after three hours of induction by centrifugation and resuspended in uptake buffer (50 mM MES pH 6.5, 140 mM NaCl, 5.4 mM KCl, 1.8 mM CaCl2, 0.8 mM MgSO4, and 5 mM glucose).” left out
# as §2
# YjdL Tyr21Phe = target: T3, YjdL Tyr21Phe (Escherichia coli, UniProt P39276, Y21F); assay: β-Ala-Lys(AMCA) uptake and inhibition assay, YjdL Tyr21Phe; settings: 0.2 mM β-Ala-Lys(AMCA), 5 min incubation, pH 6.5; ±SEM, n≥3
# T3 construct: expressed in transfected cells; host or cells: E. coli BL21(DE3)pLysS, pTTQ18-yjdL mutant (QuikChange)
# T3 sequence (P39276 1-485 Y21F): T1 sequence (P39276 1-485 Y58F) with Y21F, F58Y
# Experimental: as §1, §2
Compound,"β-Ala-Lys(AMCA) uptake level, YjdL Tyr58Phe (YjdL Tyr58Phe; 0.2 mM, 5 min, pH 6.5 (Figure 3)) [%]","Kt (WT-YjdL; WT YjdL, data not shown) [mM]",IC50 (YjdL Tyr21Phe) [µM],IC50 (YjdL Tyr58Phe) [µM],"IC50 at pH 6.5 (50 mM MES) relative to previous studies at pH 7.4 (25 mM Tris/HEPES), WT-YjdL (WT-YjdL)",IC50 (WT-YjdL; WT-YjdL a) [µM],IC50 (WT-YjdL; WT-YjdL b) [µM]
β-Ala-Lys-N-7-amino-4-methylcoumarin-3-acetic acid [β-Ala-Lys(AMCA)],7,~5,,,,,
C[C@H](N)C(=O)N[C@@H](C)C(=O)O [Ala-Ala] (H-Ala-Ala-OH),,,4500 ± 300,28100 ± 5000,eight,2800 ± 600,2200 ± 100
C[C@H](N)C(=O)N[C@@H](CCCCN)C(=O)O [Ala-Lys] (H-Ala-Lys-OH),,,450 ± 70,> 50000,,280 ± 10,890 ± 160
C[C@H](NC(=O)[C@@H](N)Cc1ccc(O)cc1)C(=O)O [Tyr-Ala],,,4700 ± 800,24100 ± 2800,same,2400 ± 400,2400 ± 200
